The source made the active and inactive calls. How the calls were made is not given here.
Target: Glucose-6-phosphate 1-dehydrogenase (Leuconostoc mesenteroides) (UniProt P11411)
Experiment: Leuconostoc G6PDH inhibition potency, SAR follow-up, counter-screen for TbHK1 inhibitor project, biochemical, analogue series, IC50 (AID 2579)
Details: Purified L. mesenteroides G6PDH enzyme assay, counterscreen

Sequence of Glucose-6-phosphate 1-dehydrogenase (Leuconostoc mesenteroides) (P11411 whole entry, looked up): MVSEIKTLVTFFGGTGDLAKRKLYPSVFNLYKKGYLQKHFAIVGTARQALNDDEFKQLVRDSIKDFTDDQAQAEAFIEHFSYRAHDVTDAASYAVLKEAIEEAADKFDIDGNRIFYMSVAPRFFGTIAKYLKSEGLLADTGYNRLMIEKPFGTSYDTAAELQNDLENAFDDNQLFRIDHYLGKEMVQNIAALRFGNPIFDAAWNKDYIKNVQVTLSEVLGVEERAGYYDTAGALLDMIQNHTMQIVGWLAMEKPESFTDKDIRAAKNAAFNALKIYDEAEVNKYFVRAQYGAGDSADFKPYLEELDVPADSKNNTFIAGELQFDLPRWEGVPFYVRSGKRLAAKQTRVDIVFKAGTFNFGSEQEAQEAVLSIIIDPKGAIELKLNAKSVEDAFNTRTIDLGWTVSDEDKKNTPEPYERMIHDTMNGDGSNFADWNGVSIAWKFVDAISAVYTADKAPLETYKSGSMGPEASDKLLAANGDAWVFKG

Row | IC50 | SMILES
1 | > 25 µM (inactive) | Cc1cc(C(C#N)c2ccc(Cl)cc2)c(Cl)cc1NC(=O)c1cc(I)cc(I)c1O (centres undefined)
2 | > 25 µM (inactive) | CC(C)(C)c1ccc(C(=O)Nc2cc(Cl)c(Br)cc2C(=O)O)cc1
3 | > 25 µM (inactive) | CC(C)(C)c1ccc(C(=O)Nc2cc(Cl)ccc2O)cc1
4 | > 25 µM (inactive) | CC1(c2ccc(C(=O)Nc3cc(Cl)ccc3C(=O)O)cc2)CC1
5 | > 25 µM (inactive) | COc1ccc(C(=O)Nc2cc(Cl)ccc2O)cc1
6 | > 25 µM (inactive) | COc1ccc(N2C(=O)c3ccc(Cl)cc3C2=O)cc1
7 | > 25 µM (inactive) | O=c1c(O)c(-c2ccc(O)c(O)c2)oc2cc(O)cc(O)c12
8 | > 25 µM (inactive) | COc1ccc(C(=O)Nc2cc(Cl)c(C)cc2C(=O)O)cc1
9 | > 25 µM (inactive) | CC(C)(C)c1ccc(C(=O)Nc2cc(Cl)c(F)cc2C(=O)O)cc1
10 | > 25 µM (inactive) | CC(C)(C)c1ccc(C(=O)Nc2cc(Cl)ccc2-c2nn[nH]n2)cc1
11 | > 25 µM (inactive) | COc1ccc(C(=O)Nc2cc(Cl)c(Br)cc2C(=O)O)cc1
12 | > 25 µM (inactive) | CC(C)(C)c1ccc(C(=O)Nc2cc(Cl)c(Cl)cc2C(=O)O)cc1
13 | > 25 µM (inactive) | CC(C)(C)c1ccc(C(=O)Nc2cc(Br)ccc2C(=O)O)cc1
14 | > 25 µM (inactive) | C=C(C)c1ccc(C(=O)Nc2cc(Cl)ccc2C(=O)O)cc1
